Among the data in article PMC10507085, “Pharmacological inhibition of TBK1/IKKε blunts immunopathology in a murine model of SARS-CoV-2 infection” (Nature Communications, 2023) are remaining binding and Kd values, retold here.

Common to all, as to assay: biochemical
Common to all, as to set-up: KINOMEscan competition binding, DNA-tagged kinase against immobilised ligand, qPCR read-out
For orientation: In qPCR the cycle at which signal appears reflects the starting amount.

For one assay, the target named is CDK14 (Homo sapiens, UniProt O94921). To be noted: read-out: Percent Control.
The target of a further assay is CDK9 (Homo sapiens, UniProt P50750). To be noted: read-out: Percent Control.
Another assay addresses CSF1R (Homo sapiens, UniProt P07333). As to conditions: read-out: Percent Control.
The next assay concerns the target CSNK1D (Homo sapiens, UniProt P48730). As to conditions: read-out: Percent Control.
A further assay has as its target CSNK1E (Homo sapiens, UniProt P49674). As to conditions: read-out: Percent Control.
The target of another assay is CSNK2A2 (Homo sapiens, UniProt P19784). As to conditions: read-out: Percent Control.
The target in the next assay is DAPK1 (Homo sapiens, UniProt P53355). As to conditions: read-out: Percent Control.
The target in the next assay is EIF2AK1 (Homo sapiens, UniProt Q9BQI3). To be noted: read-out: Percent Control.
For the next assay, the target named is ERBB4 (Homo sapiens, UniProt Q15303). To be noted: read-out: Percent Control.
A further assay has as its target IRAK3 (Homo sapiens, UniProt Q9Y616). As to conditions: read-out: Percent Control.
For a further assay, the target named is LYN (Homo sapiens, UniProt P07948). As to conditions: read-out: Percent Control.
The target of a further assay is MAPK6 (Homo sapiens, UniProt Q16659). To be noted: read-out: Percent Control.
In another assay the target is MAPK7 (Homo sapiens, UniProt Q13164). To be noted: read-out: Percent Control.
A further assay deals with NTRK3 (Homo sapiens, UniProt Q16288). To be noted: read-out: Percent Control.
In a further assay the target is PIK3CB (Homo sapiens, UniProt P42338). To be noted: read-out: Percent Control.
Another assay deals with PIP5K1C (Homo sapiens, UniProt O60331). As to conditions: read-out: Percent Control.
For the next assay, the target named is PTK2 (Homo sapiens, UniProt Q05397). As to conditions: read-out: Percent Control.
The target in another assay is STK17B (Homo sapiens, UniProt O94768). As to conditions: read-out: Percent Control.
A further assay addresses TAOK1 (Homo sapiens, UniProt Q7L7X3). An outline of the steps: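 KINOMEscan active-site competition; DNA-tagged kinase vs immobilised ligand; bound kinase by RT-qPCR. 11-pt 3-fold serial dilution, 100× stocks in 100% DMSO, 1× in assay.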
A further assay deals with TBK1 (Homo sapiens, UniProt Q9UHD2). To be noted: read-out: Percent Control.

pKd: −log10 of the molar value.

Sequence of TAOK1 (Q7L7X3 whole entry): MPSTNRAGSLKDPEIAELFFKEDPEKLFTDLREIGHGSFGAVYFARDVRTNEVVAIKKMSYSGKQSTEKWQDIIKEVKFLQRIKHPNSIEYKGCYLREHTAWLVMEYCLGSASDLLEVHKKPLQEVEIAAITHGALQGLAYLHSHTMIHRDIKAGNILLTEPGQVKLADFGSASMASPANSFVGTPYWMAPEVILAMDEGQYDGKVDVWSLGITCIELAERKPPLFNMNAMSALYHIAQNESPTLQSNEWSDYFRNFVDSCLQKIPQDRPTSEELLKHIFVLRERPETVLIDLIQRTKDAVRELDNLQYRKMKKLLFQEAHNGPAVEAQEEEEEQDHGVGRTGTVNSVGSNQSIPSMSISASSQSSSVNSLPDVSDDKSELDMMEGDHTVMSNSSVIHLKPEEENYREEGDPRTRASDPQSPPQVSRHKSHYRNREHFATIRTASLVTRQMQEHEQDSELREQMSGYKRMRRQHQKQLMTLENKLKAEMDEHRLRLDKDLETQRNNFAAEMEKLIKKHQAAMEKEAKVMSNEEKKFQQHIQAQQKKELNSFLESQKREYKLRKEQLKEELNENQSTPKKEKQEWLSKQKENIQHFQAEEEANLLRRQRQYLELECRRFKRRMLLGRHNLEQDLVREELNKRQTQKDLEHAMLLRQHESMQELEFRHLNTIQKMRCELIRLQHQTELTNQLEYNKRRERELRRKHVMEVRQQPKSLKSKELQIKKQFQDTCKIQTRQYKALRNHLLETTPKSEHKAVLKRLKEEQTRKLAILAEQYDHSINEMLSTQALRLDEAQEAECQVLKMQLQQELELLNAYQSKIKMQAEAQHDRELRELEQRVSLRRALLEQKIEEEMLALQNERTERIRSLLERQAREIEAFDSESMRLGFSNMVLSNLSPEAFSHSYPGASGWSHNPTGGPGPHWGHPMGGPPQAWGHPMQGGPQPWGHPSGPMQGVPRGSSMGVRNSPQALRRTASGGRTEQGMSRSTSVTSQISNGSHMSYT
Sequence of CDK9 (P50750 whole entry): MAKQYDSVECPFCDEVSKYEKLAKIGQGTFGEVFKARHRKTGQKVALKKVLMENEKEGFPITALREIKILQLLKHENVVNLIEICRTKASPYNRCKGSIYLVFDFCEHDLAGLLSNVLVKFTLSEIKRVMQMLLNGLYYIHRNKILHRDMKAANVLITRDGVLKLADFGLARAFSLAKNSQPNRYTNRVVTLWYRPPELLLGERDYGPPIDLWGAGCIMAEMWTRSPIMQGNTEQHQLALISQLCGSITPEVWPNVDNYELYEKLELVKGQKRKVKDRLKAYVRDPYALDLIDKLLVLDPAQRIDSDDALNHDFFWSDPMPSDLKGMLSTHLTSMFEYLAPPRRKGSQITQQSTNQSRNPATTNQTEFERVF
Sequence of STK17B (O94768 whole entry): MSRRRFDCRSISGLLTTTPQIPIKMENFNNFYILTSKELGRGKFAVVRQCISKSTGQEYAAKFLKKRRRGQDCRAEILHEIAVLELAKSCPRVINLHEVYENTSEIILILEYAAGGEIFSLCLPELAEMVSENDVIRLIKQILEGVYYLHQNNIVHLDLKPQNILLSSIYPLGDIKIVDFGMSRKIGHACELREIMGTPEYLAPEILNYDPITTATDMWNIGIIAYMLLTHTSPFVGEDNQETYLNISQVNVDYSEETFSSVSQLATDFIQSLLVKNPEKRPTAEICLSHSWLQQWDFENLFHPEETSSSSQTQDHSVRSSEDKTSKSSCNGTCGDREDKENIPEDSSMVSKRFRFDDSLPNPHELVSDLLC
Sequence of MAPK7 (Q13164 whole entry): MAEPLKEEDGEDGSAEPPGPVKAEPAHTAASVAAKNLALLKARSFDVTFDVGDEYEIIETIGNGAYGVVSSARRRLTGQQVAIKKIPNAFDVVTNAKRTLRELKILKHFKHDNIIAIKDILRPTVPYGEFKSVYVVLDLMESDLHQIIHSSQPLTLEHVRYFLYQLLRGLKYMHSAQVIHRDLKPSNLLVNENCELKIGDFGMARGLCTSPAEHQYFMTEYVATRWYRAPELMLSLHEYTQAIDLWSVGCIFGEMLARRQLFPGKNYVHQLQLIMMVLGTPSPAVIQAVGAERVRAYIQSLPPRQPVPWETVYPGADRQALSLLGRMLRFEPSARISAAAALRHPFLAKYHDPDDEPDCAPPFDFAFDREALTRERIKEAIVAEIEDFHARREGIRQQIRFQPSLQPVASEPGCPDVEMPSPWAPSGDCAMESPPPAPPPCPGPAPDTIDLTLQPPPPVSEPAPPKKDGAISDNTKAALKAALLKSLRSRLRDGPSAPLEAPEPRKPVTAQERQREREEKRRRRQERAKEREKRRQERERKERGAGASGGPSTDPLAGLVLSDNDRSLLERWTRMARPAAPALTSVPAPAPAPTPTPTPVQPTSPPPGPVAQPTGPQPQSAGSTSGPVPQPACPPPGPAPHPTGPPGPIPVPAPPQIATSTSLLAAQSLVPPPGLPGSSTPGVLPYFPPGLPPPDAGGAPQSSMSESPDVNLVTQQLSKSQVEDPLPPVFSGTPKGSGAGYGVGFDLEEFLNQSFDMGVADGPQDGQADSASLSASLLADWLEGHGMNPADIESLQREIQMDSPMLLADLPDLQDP
Sequence of MAPK6 (Q16659 whole entry): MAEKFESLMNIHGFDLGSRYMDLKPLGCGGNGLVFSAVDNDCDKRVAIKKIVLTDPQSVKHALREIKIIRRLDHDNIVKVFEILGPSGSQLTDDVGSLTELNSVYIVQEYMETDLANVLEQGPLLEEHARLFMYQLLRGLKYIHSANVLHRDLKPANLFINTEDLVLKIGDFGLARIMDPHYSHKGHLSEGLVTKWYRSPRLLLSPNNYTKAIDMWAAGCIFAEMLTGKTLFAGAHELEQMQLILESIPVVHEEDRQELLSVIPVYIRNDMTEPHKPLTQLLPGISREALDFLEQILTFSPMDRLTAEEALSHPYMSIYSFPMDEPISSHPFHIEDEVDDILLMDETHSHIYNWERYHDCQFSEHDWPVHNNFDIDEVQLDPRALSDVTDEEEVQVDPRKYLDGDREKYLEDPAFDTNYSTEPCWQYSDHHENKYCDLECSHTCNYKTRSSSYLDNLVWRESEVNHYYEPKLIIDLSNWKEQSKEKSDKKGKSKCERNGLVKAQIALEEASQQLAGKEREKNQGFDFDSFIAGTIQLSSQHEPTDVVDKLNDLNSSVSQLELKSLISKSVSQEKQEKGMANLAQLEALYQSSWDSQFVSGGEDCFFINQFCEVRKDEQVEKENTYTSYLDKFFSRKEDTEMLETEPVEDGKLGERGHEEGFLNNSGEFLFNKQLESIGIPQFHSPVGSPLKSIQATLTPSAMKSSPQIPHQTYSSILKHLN
Sequence of PTK2 (Q05397 whole entry): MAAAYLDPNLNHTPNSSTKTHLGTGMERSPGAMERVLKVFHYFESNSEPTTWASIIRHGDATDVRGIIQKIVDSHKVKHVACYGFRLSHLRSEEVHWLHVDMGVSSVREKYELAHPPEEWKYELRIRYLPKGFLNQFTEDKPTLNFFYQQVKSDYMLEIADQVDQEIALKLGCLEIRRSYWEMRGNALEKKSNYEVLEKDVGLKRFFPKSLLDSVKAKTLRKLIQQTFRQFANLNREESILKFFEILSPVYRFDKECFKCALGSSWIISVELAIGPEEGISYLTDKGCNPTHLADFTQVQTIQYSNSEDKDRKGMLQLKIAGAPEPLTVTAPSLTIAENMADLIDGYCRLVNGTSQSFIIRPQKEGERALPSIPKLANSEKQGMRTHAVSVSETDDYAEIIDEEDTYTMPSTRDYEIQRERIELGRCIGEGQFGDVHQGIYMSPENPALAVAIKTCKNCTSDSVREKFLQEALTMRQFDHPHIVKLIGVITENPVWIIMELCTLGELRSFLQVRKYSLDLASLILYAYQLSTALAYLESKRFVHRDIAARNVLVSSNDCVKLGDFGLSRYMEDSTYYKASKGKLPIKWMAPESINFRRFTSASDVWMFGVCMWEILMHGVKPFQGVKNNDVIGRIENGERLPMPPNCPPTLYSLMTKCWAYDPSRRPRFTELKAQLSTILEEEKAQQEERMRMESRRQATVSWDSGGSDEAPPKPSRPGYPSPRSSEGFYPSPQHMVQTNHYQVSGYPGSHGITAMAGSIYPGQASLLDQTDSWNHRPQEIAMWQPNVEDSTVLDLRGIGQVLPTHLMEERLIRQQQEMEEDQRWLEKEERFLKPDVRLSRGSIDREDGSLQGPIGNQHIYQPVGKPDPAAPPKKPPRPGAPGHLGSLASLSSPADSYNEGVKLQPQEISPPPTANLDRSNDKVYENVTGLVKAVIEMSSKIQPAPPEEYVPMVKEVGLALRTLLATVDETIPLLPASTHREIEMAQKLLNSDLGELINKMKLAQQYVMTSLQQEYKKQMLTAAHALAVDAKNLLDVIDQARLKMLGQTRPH
Sequence of EIF2AK1 (Q9BQI3 whole entry): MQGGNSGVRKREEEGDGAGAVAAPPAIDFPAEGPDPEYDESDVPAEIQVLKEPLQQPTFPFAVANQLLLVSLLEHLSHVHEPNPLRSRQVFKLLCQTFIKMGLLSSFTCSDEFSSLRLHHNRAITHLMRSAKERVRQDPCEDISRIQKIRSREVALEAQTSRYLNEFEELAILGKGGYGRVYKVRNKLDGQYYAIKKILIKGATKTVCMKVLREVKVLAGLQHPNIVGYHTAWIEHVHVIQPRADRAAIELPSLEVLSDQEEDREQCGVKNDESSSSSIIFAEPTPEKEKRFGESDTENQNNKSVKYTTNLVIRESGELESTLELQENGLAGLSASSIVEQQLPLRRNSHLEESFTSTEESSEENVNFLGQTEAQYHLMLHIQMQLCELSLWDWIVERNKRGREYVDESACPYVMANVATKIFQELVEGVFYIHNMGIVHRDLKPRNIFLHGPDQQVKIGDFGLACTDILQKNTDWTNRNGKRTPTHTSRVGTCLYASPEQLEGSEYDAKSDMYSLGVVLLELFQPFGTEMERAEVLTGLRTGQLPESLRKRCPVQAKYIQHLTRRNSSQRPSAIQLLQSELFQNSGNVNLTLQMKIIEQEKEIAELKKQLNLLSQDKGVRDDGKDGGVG

Broadly, the pKd is −log10 of the Kd, conventionally taken in molar units. Turning to `Oc1ccc(C2=Cc3ccc(O)cc3OC2)cc1` [compound 1, idronoxil], the remaining binding at 10 µM at CDK14 worked out at 95%; at CDK9, 91%; on CSF1R, 26%; at CSNK1D, 58%; at CSNK1E it was 74%; at CSNK2A2, 35%. Further, the remaining binding at 10 µM was 53% at DAPK1; 88% at EIF2AK1; 91% on ERBB4; 77% on IRAK3; 71% on LYN; 96% at MAPK6. For the same molecule, the remaining binding at 10 µM stood at 90% at MAPK7; 97% on NTRK3; 98% on PIK3CB; 25% at PIP5K1C; 100% on PTK2; 40% on STK17B. Besides, the remaining binding at 10 µM at TAOK1 (read-out: Percent Control) is 16%; at TBK1, 99%. Besides, at TAOK1, the pKd is 5.33.
